From article PMC9986241 (Signal Transduction and Targeted Therapy, 2023)

Experiments:
Assay in all cases: KinaseProfiler enzyme profiling
Assay type in all cases: biochemical
CDK9/cyclin T1(h) = target: T1, CDK9/cyclin T1(h) (Homo sapiens, UniProt P50750)
T1 construct: purchased Eurofins KinaseProfiler
Description: (§1) Enzyme profiling services were provided by KinaseProfiler™ (Eurofin, Brussels, Belgium). The concentration of erianin was 100 nM, and total 70 kinases were tested in this in vitro screening and profiling services (2 repetitions). For more details, refer to the manufacturer’s instructions (www.eurofinsdiscoveryservices.com).

B-Raf(V599E)(h) = target: T2, B-Raf(V599E)(h) (Homo sapiens, UniProt P15056, V600E)
T2 construct: purchased Eurofins KinaseProfiler
Description: as §1

ROCK-I(h) = target: T3, ROCK-I(h) (Homo sapiens, UniProt Q13464)
T3 construct: purchased Eurofins KinaseProfiler
Description: as §1

SAPK4(h) = target: T4, SAPK4(h) (Homo sapiens, UniProt O15264)
T4 construct: purchased Eurofins KinaseProfiler
Description: as §1

SAPK3(h) = target: T5, SAPK3(h) (Homo sapiens, UniProt P53778)
T5 construct: purchased Eurofins KinaseProfiler
Description: as §1

JNK3(h) = target: T6, JNK3(h) (Homo sapiens, UniProt P53779)
T6 construct: purchased Eurofins KinaseProfiler
Description: as §1

EGFR(T790M,L858R)(h) = target: T7, EGFR(T790M,L858R)(h) (Homo sapiens, UniProt P00533, L858R/T790M)
T7 construct: purchased Eurofins KinaseProfiler
Description: as §1

MAPK1(h) = target: T8, MAPK1(h) (Homo sapiens, UniProt P27361)
T8 construct: purchased Eurofins KinaseProfiler
Description: as §1

mTOR(h) = target: T9, mTOR(h) (Homo sapiens, UniProt P42345)
T9 construct: purchased Eurofins KinaseProfiler
Description: as §1

PAK4(h) = target: T10, PAK4(h) (Homo sapiens, UniProt O96013)
T10 construct: purchased Eurofins KinaseProfiler
Description: as §1

CDK2/cyclinA(h) = target: T11, CDK2/cyclinA(h) (Homo sapiens, UniProt P24941)
T11 construct: purchased Eurofins KinaseProfiler
Description: as §1

EGFR(h) = target: T12, EGFR(h) (Homo sapiens, UniProt P00533)
T12 construct: purchased Eurofins KinaseProfiler
Description: as §1

MEK1(h) = target: T13, MEK1(h) (Homo sapiens, UniProt Q02750)
T13 construct: purchased Eurofins KinaseProfiler
Description: as §1

PAK2(h) = target: T14, PAK2(h) (Homo sapiens, UniProt Q13177)
T14 construct: purchased Eurofins KinaseProfiler
Description: as §1

FAK(h) = target: T15, FAK(h) (Homo sapiens, UniProt Q05397)
T15 construct: purchased Eurofins KinaseProfiler
Description: as §1

JAK1(h) = target: T16, JAK1(h) (Homo sapiens, UniProt P23458)
T16 construct: purchased Eurofins KinaseProfiler
Description: as §1

FGFR1(h) = target: T17, FGFR1(h) (Homo sapiens, UniProt P11362)
T17 construct: purchased Eurofins KinaseProfiler
Description: as §1

JNK2α2(h) = target: T18, JNK2α2(h) (Homo sapiens, UniProt P45984)
T18 construct: purchased Eurofins KinaseProfiler
Description: as §1

IKKα(h) = target: T19, IKKα(h) (Homo sapiens, UniProt O15111)
T19 construct: purchased Eurofins KinaseProfiler
T19 sequence (O15111 1-745): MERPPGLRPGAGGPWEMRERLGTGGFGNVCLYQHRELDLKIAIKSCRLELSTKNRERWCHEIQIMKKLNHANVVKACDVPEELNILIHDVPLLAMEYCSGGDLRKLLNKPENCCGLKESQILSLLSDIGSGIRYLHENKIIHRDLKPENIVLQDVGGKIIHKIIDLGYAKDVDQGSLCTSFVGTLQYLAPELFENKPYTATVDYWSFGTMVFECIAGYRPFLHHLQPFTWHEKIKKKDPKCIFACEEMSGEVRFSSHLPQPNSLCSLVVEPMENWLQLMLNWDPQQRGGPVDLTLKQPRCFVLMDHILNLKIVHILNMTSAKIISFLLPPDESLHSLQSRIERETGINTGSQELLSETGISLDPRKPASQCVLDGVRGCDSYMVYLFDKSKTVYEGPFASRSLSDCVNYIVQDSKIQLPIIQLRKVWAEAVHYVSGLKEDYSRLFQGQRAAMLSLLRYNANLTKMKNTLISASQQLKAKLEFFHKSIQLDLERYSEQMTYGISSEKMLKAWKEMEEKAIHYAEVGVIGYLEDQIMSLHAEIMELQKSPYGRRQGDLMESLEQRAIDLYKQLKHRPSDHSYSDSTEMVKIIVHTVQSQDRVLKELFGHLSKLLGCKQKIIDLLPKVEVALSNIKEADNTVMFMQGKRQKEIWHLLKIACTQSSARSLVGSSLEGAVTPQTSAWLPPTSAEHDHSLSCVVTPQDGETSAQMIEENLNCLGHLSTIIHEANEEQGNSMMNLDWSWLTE
Description: as §1

CaMKIV(h) = target: T20, CaMKIV(h) (Homo sapiens, UniProt Q16566)
T20 construct: purchased Eurofins KinaseProfiler
Description: as §1

GSK3β(h) = target: T21, GSK3β(h) (Homo sapiens, UniProt P49841)
T21 construct: purchased Eurofins KinaseProfiler
Description: as §1

MAPK2(h) = target: T22, MAPK2(h) (Homo sapiens, UniProt P28482)
T22 construct: purchased Eurofins KinaseProfiler
Description: as §1

Pim-1(h) = target: T23, Pim-1(h) (Homo sapiens, UniProt P11309)
T23 construct: purchased Eurofins KinaseProfiler
Description: as §1

PKBα(h) = target: T24, PKBα(h) (Homo sapiens, UniProt P31749)
T24 construct: purchased Eurofins KinaseProfiler
Description: as §1

PKCα(h) = target: T25, PKCα(h) (Homo sapiens, UniProt P17252)
T25 construct: purchased Eurofins KinaseProfiler
Description: as §1

JAK2(h) = target: T26, JAK2(h) (Homo sapiens, UniProt O60674)
T26 construct: purchased Eurofins KinaseProfiler
Description: as §1

PAK1(h) = target: T27, PAK1(h) (Homo sapiens, UniProt Q13153)
T27 construct: purchased Eurofins KinaseProfiler
Description: as §1

c-RAF(h) = target: T28, c-RAF(h) (Homo sapiens, UniProt P04049)
T28 construct: purchased Eurofins KinaseProfiler
Description: as §1

MSK1(h) = target: T29, MSK1(h) (Homo sapiens, UniProt O75582)
T29 construct: purchased Eurofins KinaseProfiler
Description: as §1

CDK3/cyclinE(h) = target: T30, CDK3/cyclinE(h) (Homo sapiens, UniProt Q00526)
T30 construct: purchased Eurofins KinaseProfiler
Description: as §1

CDK6/cyclinD3(h) = target: T31, CDK6/cyclinD3(h) (Homo sapiens, UniProt Q00534)
T31 construct: purchased Eurofins KinaseProfiler
Description: as §1

PKA(h) = target: T32, PKA(h) (Homo sapiens, UniProt P17612)
T32 construct: purchased Eurofins KinaseProfiler
Description: as §1

T27 sequence (Q13153 whole entry): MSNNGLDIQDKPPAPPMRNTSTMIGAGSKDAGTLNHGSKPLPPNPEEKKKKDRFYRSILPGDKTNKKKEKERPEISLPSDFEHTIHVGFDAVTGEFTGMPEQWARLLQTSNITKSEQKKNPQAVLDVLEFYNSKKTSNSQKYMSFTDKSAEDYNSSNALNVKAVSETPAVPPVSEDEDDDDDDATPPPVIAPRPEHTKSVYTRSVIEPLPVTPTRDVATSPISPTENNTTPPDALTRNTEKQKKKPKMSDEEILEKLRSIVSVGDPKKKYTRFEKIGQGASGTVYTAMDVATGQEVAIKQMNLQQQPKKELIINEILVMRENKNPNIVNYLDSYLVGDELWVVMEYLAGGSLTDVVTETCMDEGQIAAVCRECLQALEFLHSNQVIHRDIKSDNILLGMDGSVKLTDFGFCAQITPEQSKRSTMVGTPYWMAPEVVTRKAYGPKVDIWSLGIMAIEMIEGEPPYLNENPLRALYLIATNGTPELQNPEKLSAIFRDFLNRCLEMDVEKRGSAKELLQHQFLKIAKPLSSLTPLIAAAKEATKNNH
T13 sequence (Q02750 whole entry): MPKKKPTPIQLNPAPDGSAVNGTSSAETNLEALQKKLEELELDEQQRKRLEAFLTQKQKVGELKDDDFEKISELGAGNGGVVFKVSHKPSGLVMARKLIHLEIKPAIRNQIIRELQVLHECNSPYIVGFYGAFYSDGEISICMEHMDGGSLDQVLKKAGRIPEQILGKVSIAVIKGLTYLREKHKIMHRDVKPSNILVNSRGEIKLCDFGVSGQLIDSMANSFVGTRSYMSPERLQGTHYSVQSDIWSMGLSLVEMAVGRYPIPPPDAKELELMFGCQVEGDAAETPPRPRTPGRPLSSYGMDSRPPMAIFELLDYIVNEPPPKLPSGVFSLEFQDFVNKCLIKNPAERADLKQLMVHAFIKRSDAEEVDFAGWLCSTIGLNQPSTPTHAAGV
T10 sequence (O96013 whole entry): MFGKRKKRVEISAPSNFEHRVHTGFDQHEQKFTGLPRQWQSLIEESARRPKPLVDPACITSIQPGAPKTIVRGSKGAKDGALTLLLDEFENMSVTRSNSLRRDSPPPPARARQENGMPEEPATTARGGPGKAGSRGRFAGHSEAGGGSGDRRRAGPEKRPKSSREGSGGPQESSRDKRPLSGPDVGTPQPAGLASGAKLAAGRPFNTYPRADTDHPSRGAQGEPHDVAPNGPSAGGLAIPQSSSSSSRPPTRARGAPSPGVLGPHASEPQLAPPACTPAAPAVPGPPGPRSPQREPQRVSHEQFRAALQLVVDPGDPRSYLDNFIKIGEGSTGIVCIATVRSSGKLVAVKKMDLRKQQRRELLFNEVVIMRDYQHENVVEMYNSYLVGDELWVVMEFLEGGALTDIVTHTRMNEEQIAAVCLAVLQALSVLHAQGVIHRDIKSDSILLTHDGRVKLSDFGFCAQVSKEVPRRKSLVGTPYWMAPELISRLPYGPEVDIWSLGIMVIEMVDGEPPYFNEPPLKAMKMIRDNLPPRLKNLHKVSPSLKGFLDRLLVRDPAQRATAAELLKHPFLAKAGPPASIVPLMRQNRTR
T8 sequence (P27361 whole entry): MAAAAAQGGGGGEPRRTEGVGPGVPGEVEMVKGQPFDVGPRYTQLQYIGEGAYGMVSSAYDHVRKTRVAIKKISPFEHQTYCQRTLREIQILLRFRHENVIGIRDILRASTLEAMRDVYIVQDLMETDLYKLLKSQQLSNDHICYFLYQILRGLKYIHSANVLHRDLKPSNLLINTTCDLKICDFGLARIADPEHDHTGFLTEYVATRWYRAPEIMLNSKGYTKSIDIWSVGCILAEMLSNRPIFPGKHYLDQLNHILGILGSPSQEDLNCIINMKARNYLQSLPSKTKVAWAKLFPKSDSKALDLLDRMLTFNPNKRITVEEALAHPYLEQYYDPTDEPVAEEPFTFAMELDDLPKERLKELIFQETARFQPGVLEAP
T22 sequence (P28482 whole entry): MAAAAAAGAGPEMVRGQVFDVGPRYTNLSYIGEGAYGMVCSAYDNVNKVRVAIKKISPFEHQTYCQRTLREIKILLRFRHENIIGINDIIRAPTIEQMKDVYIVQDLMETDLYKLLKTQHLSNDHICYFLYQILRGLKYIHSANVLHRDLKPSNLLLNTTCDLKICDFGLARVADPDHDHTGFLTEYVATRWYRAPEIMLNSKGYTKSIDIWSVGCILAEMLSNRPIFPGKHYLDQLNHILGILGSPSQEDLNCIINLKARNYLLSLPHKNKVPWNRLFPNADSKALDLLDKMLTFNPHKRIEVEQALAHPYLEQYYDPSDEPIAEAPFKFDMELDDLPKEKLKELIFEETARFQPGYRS
T1 sequence (P50750 whole entry): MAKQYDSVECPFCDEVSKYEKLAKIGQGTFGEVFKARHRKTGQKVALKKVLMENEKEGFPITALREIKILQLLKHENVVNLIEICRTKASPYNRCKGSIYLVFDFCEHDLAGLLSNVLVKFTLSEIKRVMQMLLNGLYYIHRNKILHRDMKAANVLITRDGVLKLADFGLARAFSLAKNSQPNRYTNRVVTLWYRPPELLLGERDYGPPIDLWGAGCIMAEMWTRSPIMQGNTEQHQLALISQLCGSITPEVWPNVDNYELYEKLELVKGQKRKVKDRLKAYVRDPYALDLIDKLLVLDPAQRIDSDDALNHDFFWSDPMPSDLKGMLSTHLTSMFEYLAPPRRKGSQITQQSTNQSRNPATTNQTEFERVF
T1 sequence (O60563 whole entry partner): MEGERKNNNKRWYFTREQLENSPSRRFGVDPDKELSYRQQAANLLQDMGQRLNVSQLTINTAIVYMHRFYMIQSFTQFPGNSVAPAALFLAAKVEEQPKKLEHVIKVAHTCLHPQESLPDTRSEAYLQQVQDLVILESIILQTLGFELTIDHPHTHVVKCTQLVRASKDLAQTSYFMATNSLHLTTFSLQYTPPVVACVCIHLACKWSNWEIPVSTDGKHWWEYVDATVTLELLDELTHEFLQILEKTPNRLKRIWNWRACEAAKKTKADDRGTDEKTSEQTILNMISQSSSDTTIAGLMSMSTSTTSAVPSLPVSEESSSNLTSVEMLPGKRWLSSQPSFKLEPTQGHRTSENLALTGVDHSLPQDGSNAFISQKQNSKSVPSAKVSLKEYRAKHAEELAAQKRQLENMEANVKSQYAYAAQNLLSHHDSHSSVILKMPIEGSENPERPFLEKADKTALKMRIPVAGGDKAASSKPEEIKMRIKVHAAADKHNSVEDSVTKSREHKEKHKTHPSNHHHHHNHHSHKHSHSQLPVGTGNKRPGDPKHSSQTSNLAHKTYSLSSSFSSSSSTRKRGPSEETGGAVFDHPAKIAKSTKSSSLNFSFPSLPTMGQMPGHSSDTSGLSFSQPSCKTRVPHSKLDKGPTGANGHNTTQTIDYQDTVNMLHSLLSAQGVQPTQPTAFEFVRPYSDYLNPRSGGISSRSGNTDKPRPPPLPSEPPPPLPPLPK
T16 sequence (P23458 whole entry): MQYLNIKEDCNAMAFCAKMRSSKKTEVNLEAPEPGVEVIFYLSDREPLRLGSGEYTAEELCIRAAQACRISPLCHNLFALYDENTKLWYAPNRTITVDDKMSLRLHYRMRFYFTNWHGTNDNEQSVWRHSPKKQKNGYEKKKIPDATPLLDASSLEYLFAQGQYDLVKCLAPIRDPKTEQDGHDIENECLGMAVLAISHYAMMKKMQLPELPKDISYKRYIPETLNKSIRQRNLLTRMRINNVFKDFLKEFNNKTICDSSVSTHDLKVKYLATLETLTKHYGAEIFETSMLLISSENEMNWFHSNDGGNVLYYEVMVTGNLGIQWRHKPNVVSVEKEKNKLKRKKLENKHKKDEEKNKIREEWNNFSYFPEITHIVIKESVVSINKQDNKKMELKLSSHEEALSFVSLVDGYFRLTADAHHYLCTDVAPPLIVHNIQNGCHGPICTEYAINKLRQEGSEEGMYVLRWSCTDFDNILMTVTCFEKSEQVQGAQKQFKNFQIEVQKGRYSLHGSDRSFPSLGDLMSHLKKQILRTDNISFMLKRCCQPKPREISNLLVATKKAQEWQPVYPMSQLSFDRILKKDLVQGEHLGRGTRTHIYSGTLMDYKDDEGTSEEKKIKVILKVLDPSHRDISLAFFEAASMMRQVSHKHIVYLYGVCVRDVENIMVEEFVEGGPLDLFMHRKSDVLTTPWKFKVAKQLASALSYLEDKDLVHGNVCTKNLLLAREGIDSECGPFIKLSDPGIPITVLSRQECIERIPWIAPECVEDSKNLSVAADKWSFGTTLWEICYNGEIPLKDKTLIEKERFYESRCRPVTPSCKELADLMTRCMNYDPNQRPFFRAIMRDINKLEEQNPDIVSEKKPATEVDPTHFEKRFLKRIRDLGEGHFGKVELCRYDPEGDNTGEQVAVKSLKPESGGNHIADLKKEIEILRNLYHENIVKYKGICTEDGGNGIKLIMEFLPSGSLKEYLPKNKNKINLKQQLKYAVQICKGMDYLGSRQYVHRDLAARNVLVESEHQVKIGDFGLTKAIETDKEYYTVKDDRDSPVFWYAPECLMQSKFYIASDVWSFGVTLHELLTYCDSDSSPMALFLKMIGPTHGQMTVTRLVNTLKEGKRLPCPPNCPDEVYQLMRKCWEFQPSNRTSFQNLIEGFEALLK
T5 sequence (P53778 whole entry): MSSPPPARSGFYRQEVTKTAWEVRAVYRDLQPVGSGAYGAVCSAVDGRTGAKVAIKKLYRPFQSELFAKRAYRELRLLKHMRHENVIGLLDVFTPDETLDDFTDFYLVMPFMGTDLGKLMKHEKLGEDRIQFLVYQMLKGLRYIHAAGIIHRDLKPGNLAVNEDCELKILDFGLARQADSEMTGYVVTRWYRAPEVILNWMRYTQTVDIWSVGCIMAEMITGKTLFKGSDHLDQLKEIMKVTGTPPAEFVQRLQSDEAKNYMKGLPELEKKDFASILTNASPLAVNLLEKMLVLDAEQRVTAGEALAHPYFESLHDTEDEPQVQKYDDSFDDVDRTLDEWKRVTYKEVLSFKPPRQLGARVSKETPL

## COc1ccc(CCc2cc(OC)c(OC)c(OC)c2)cc1O [Erianin]
CDK9/cyclin T1(h)
  activity at 0.1 µM: 97%
B-Raf(V599E)(h)
  activity at 0.1 µM: 109%
ROCK-I(h)
  activity at 0.1 µM: 125%
SAPK4(h)
  activity at 0.1 µM: 103%
SAPK3(h)
  activity at 0.1 µM: 112%
JNK3(h)
  activity at 0.1 µM: 111%
EGFR(T790M,L858R)(h)
  activity at 0.1 µM: 120%
MAPK1(h)
  activity at 0.1 µM: 92%
mTOR(h)
  activity at 0.1 µM: 104%
PAK4(h)
  activity at 0.1 µM: 93%
CDK2/cyclinA(h)
  activity at 0.1 µM: 94%
EGFR(h)
  activity at 0.1 µM: 105%
MEK1(h)
  activity at 0.1 µM: 99%
PAK2(h)
  activity at 0.1 µM: 107%
FAK(h)
  activity at 0.1 µM: 89%
JAK1(h)
  activity at 0.1 µM: 117%
FGFR1(h)
  activity at 0.1 µM: 118%
JNK2α2(h)
  activity at 0.1 µM: 91%
IKKα(h)
  activity at 0.1 µM: 108%
CaMKIV(h)
  activity at 0.1 µM: 91%
GSK3β(h)
  activity at 0.1 µM: 99%
MAPK2(h)
  activity at 0.1 µM: 104%
Pim-1(h)
  activity at 0.1 µM: 98%
PKBα(h)
  activity at 0.1 µM: 105%
PKCα(h)
  activity at 0.1 µM: 89%
JAK2(h)
  activity at 0.1 µM: 107%
PAK1(h)
  activity at 0.1 µM: 109%
c-RAF(h)
  activity at 0.1 µM: 85%

## C=C1C(=O)[C@]23[C@H](O)[C@H]1CC[C@H]2[C@@]12CO[C@]3(O)[C@@H](O)[C@@H]1C(C)(C)CC[C@@H]2O [Oridonin]
CDK9/cyclin T1(h)
  activity at 10 µM: 59%
ROCK-I(h); 10 µM
  activity at 10 µM: 86%
SAPK4(h); 10 µM
  activity at 10 µM: 106%
MSK1(h)
  activity at 10 µM: 93%
SAPK3(h); 10 µM
  activity at 10 µM: 122%
JNK3(h); 10 µM
  activity at 10 µM: 54%
MAPK1(h)
  activity at 10 µM: 63%
mTOR(h); 10 µM
  activity at 10 µM: 81%
PAK4(h)
  activity at 10 µM: 86%
CDK2/cyclinA(h)
  activity at 10 µM: 67%
CDK3/cyclinE(h)
  activity at 10 µM: 70%
EGFR(h)
  activity at 10 µM: 91%
MEK1(h)
  activity at 10 µM: 92%
PAK2(h)
  activity at 10 µM: 99%
FAK(h); 10 µM
  activity at 10 µM: 76%
JAK1(h)
  activity at 10 µM: 75%
JNK2α2(h); 10 µM
  activity at 10 µM: 115%
IKKα(h)
  activity at 10 µM: 80%
CDK6/cyclinD3(h)
  activity at 10 µM: 69%
MAPK2(h)
  activity at 10 µM: 82%
PKBα(h); 10 µM
  activity at 10 µM: 90%
PKA(h)
  activity at 10 µM: 108%
PKCα(h); 10 µM
  activity at 10 µM: 69%
JAK2(h); 10 µM
  activity at 10 µM: 90%
PAK1(h)
  activity at 10 µM: 110%

## COc1cc2oc(-c3ccc(O)c(O)c3)cc(=O)c2c(O)c1OC [Cirsiliol]
CDK9/cyclin T1(h)
  activity at 10 µM: 98%
B-Raf(V599E)(h); 10 µM
  activity at 10 µM: 106%
MSK1(h)
  activity at 10 µM: 106%
EGFR(T790M,L858R)(h); 10 µM
  activity at 10 µM: 101%
MAPK1(h)
  activity at 10 µM: 103%
PAK4(h)
  activity at 10 µM: 104%
CDK2/cyclinA(h)
  activity at 10 µM: 91%
CDK3/cyclinE(h)
  activity at 10 µM: 97%
EGFR(h)
  activity at 10 µM: 98%
MEK1(h)
  activity at 10 µM: 105%
PAK2(h)
  activity at 10 µM: 111%
JAK1(h)
  activity at 10 µM: 99%
FGFR1(h); 10 µM
  activity at 10 µM: 103%
IKKα(h)
  activity at 10 µM: 102%
CaMKIV(h); 10 µM
  activity at 10 µM: 93%
CDK6/cyclinD3(h)
  activity at 10 µM: 101%
GSK3β(h); 10 µM
  activity at 10 µM: 115%
MAPK2(h)
  activity at 10 µM: 114%
Pim-1(h); 10 µM
  activity at 10 µM: 112%
PKA(h)
  activity at 10 µM: 100%
PAK1(h)
  activity at 10 µM: 104%
c-RAF(h); 10 µM
  activity at 10 µM: 104%
